Values joined by “and” are separate entries in the source; they are usually repeats but may differ in a detail not shown here. Equal values may be shown once.
Tests used:
C. glutamicum CR099 [1] = assay: Resistance of C. glutamicum CR099 to antimicrobial peptides, endpoint growth in 96-well microtiter plates; format: cell-based, Corynebacterium glutamicum
Experimental: Values are mean±standard deviation of n=4-7 independent experiments. (B) Growth of C. glutamicum CR099 in standard batch culture in 2xTY medium with 2% Glc in the presence (+PA-1) or absence (−PA-1) of 2.0 μg/mL pediocin. Values are mean±standard deviation of n=4 independent experiments. Growth rates were calculated during exponential growth phase. (C) Growth inhibition of L. monocytogenes EGDe::pIMK2 by supernatants of C. glutamicum CR099 in 2xTY medium with 2% Glc plus 2 μg/mL pure pediocin (+CR099). Supernatants were collected during the experiment shown in (B) at the indicated time-points. As controls, pediocin was incubated under the same conditions in sterile medium (−CR099). Values are OD600 of the indicator strain L. monocytogenes EGDe in a growth assay at the indicated dilutions of the samples and are mean±standard deviation of n=3 independent experiments. […]
The receptors for bacteriocins of the pediocin family on target organisms are the IIC and IID subunits of a sub-family of mannose-specific phosphotransferase systems (PTS^Man; PMID: 19477899). […] To corroborate this assumption, the resistance of C. glutamicum CR099 against different antimicrobial peptides was determined using an endpoint measurement of growth in 96-well microtiter plates (FIG. 2A).

[2] = system: L. lactis NZ9000/pNZ-Pnis-mCherry^Lla; assay: Nisin sensor strain mCherry fluorescence assay; format: cell-based, Lactococcus lactis; details: 96-well microtiter plate assay
Experimental: (B) A photo of the bacterial pellet taken after growth in GM17 medium containing 10 ng/ml nisin.
Black lines indicate absorbance at 214 nm in milli arbitrary units (mAU) and grey lines % of solution B in the elation buffer. Broken lines indicate the boundaries of the peak fractions collected for further analysis. (B) L. lactis NZ9000/pNZ-Pnis-mCherry^Lla was used to assay presence of nisin in different samples during purification of ammonium sulphate-precipitated supernatants of C. glutamicum CR099/pXMJ-nisZBTC^opt (SN: plain culture supernatant; precip: ammonium sulphate precipitated supernatant proteins; IEX: peak fraction of ion exchange chromatography; RP peak fraction of reverse phase chromatography. pos: 10 ng/ml nisin; +/−: activation by trypsin).
The sensitivity of the spot-on-lawn assay using C. glutamicum CR099 as an indicator strain is very low. […] The strain L. lactis NZ9000/pNZ-Pnis-mCherry^Lla contains the NisRK two-component system and harbours a pNZ-derives plasmid for expression the red-fluorescent protein mCherry from the Pnis promoter (FIG. 11A), which is activated by NisR in a strictly nisin-dependent manner. In this construct, the coding sequence of the mCherry protein is optimized for codon usage of L. lactis. The respective sensor strain results in reddish coloured bacteria after o/N growth in the presence of 10 ng mL^−1 (FIG. 11B). […]

[3] = system: L. monocytogenes EGDe::pIMK2; assay: Microtiter plate growth inhibition assay, L. monocytogenes indicator; format: cell-based, Listeria monocytogenes; details: serial 2-fold dilutions of pediocin standard
Source text: (§1) (B) Growth inhibition of L. monocytogenes EGDe::pIMK2 by supernatants of P. acidilactici 347 (Paci) collected in early stationary growth phase at the indicated dilution. Values are mean±standard deviation of at least n=3 independent experiments per condition. Dilution series sterile H2O (A) or MRS medium (B) were used as negative controls. Hatched bars indicate growth of the indicator strain without addition of diluted supernatant or pediocin, i.e. maximum growth. The bottom and top lines indicate OD600 of the positive (i.e. complete inhibition of growth) or negative (i.e. in the absence of an antimicrobial peptide), respectively. The broken middle line represents growth inhibition of 50%, i.e. the threshold to calculate bacteriocin units.
Pediocin PA-1 is a bacteriocin with potent antimicrobial activity against a range of Gram-positive microorganisms including important human pathogens such as Listeria monocytogenes. As a first step towards recombinant production of pediocin PA-1, a growth-dependent assay was established using L. monocytogenes EGDe::pIMK2 or L. innocua LMG2785::pIMK2 as indicator strains, and commercially available, purified pediocin (FIG. 1A). […]
(§2) To validate the assay, anti-microbial activity in supernatants of P. acidilactici 347, a natural producer of pediocin was measured following growth in MRS medium to early stationary growth phase (FIG. 1B). […]

[4] = system: L. innocua LMG2785::pIMK2; assay: Microtiter plate growth inhibition assay, L. innocua indicator; format: cell-based, Listeria innocua; details: serial 2-fold dilutions of pediocin standard
Source text: as §1
2h after inoculation Glc (2% w/v) and IPTG (0.1 mM) were added to induce production of pediocin (B) Growth inhibition of L. innocua LMG2785::pIMK2 by different dilutions of supernatants of C. glutamicum CR099/pEKEx2-pedACD (pedACD) collected at the indicated timepoints during the growth experiment shown in (A). All values are mean±standard deviation of n=3 independent experiments. […]
as §2

C. glutamicum CR099 [5] = assay: Growth of C. glutamicum CR099 in standard batch culture with pediocin; format: cell-based, Corynebacterium glutamicum; details: 2 μg mL^−1 pediocin, baffled Erlenmeyer flask, 2xTY with 2% Glc
Experimental: (§3) Values are mean±standard deviation of n=4-7 independent experiments. (B) Growth of C. glutamicum CR099 in standard batch culture in 2xTY medium with 2% Glc in the presence (+PA-1) or absence (−PA-1) of 2.0 μg/mL pediocin. Values are mean±standard deviation of n=4 independent experiments. Growth rates were calculated during exponential growth phase. (C) Growth inhibition of L. monocytogenes EGDe::pIMK2 by supernatants of C. glutamicum CR099 in 2xTY medium with 2% Glc plus 2 μg/mL pure pediocin (+CR099). Supernatants were collected during the experiment shown in (B) at the indicated time-points. As controls, pediocin was incubated under the same conditions in sterile medium (−CR099). Values are OD600 of the indicator strain L. monocytogenes EGDe in a growth assay at the indicated dilutions of the samples and are mean±standard deviation of n=3 independent experiments. In all graphs, the bottom and top lines indicate OD600 of the positive (i.e. complete inhibition of growth) or negative (i.e. in the absence of an antimicrobial peptide), respectively. The broken middle lines represent growth inhibition of 50%, i.e. the threshold to calculate bacteriocin units.
By contrast, C. glutamicum CR099 was able to grow in the presence of at least 12.5 μg mL^−1 pediocin PA-1.

[6] = system: L. monocytogenes EGDe::pIMK2; assay: Pediocin activity remaining in culture supernatant during C. glutamicum CR099 cultivation; format: cell-based, Listeria monocytogenes
Experimental: as §3
Additionally, activity of pediocin was measured in the culture supernatant at select timepoints during the cultivation. […] The observed reduction in activity was therefore considered to be related to adsorption of the positively charged pediocin to the negative surface of bacteria and, at later timepoints, to oxidative inactivation.

Row | Substance | concentration above which growth of C. glutamicum CR099 is inhibited (C. glutamicum CR099 [1]; preliminary experiments) [ng/mL] | limit of detection of the sensor strain for active nisin [2] | minimal concentration to completely inhibit growth of the indicator strain [3] [ng/mL] | minimal concentration to completely inhibit growth of the indicator strain [4] [ng/mL] | concentration in the presence of which C. glutamicum CR099 was able to grow (C. glutamicum CR099 [1]; 96-well microtiter plates, endpoint growth) | effect on final optical density and growth rate (C. glutamicum CR099 [5]) | pediocin activity in culture supernatant, initial ([6]; 2 μg/mL pediocin in growing C. glutamicum CR099 culture, start) [BU mL^−1] | pediocin activity after 24 hours in control incubation ([6]; 2xTY without bacteria, 24 hours) | pediocin activity in culture supernatant after slight initial reduction ([6]; growing C. glutamicum CR099 culture, stable for several hours) [BU mL^−1] | pediocin activity in culture supernatant after 24 hours ([6]; in the presence of C. glutamicum CR099, 24 hours) [BU mL^−1]
1 | nisin | > 100 | 0.2 to 0.5 ng/mL and 0.25 to 0.5 ng/mL | – | – | – | – | – | – | – | –
2 | pediocin PA-1 (KYYGNGVTCGKHSCSVDWGKATTCIINNGAMAWATGGHQGNHKC; listed as Pediococcus acidilactici) [commercially available, purified Class IIA bacteriocin] | – | – | 39 | 39 | at least 12.5 μg mL^−1 | did not affect final optical density and growth rate | 2560 | the same reduction was observed | 1280 | 160

Source: US20220348615A1, “PRODUCTION OF BACTERIOCINS” (priority 2021, published 2022)
